{
  "source": "patent US20240307427A1",
  "about": "(priority 2023, published 2024)",
  "key": {"SARS-COV-2": {"system": "SARS-COV-2", "details": "in vitro, human precision-cut lung slices; cited from earlier work"}, "[1]": {"details": "deposited dose 0.35 mg/kg by inhalation vs 10 mg/kg intravenous, African green monkeys; cited from earlier work"}, "A549 cells": {"system": "A549 cells", "experiment": "MTT cell viability assay", "details": "24 hours, 0.05 to 10 μM", "protocol": "A549 cells were cultured in DMEM/F12 medium supplemented with 10% (v/v) FBS and 1% (v/v) antibiotic-antimycotic at 37° C. in a humidified incubator with 5% CO2. On the day prior to treatment addition, approximately 2×10^4 cells/well were seeded into 96-well plates and incubated overnight. […] Upon the treatment, the cells were incubated with 200 μL of MTT reagent (0.8 mg/mL) for 3 hours at 37° C. 100 μL of isopropyl alcohol was then added to each well to solubilize the formazan dye crystals and the absorbance at 570 nm was measured using a microplate spectrophotometer (Thermo Scientific™ Multiskan™ GO, Thermo-Fisher, Waltham, MA, USA). Cell viability (%) was calculated by dividing the absorbance of treated cells by the absorbance of cells from the control group with equivalent concentration of DMSO as the treatment group. Six replicates were made for each concentration and the whole MTT assay was repeated in triplicate."}, "[2]": {"details": "intravenous doses, healthy subjects, cited from earlier work"}, "[3]": {"details": "cited from earlier work"}, "[4]": {"experiment": "Equilibrium solubility measurement in organic solvents", "format": "physicochemical", "details": "25 °C, organic solvent or mixture, thermodynamic from solid", "protocol": "10 μL samples were injected onto the column.\nSamples were filtered through 0.45 μm membrane filters, followed by dilution to appropriate concentrations for the HPLC assay."}, "[5]": {"experiment": "pH determination during dissolution in simulated lung fluid", "format": "physicochemical", "details": "equimolar amount (0.017 mol) in 20 mL SLF, initial pH 7.4, 37° C.", "protocol": "The solution containing the samples was stirred at 75 rpm with a magnetic bar at 37° C., followed by in situ pH measurement at designated time points, i.e., 2 s, 5 s, 10 s, 15 s, 30 s, 45 s, 1 min, 1.5 min, 2 min, 3 min, 5 min, and 10 min, using a pH meter (Lab 850, Schott Instruments, United Kingdom)."}, "[6]": {"experiment": "In-vitro drug release study in pH 7.4 simulated lung fluid", "format": "physicochemical", "details": "20 mL pH 7.4 SLF3, 37° C., 75 rpm, LAG cocrystal <63 μm, n=3"}},
  "note": "Like-named read-outs stand apart in the source and are kept apart here.",
  "data": [
    {"smiles": "CC(=O)Oc1ccccc1C(=O)O", "note": "[ASA, acetylsalicylic acid]", "values": [
      {"measurement": "SARS-COV-2 viral replication", "setting": "SARS-COV-2", "result": "inhibit SARS-COV-2 viral replication"}
    ]},
    {"smiles": "CCC(CC)COC(=O)[C@H](C)N[P@](=O)(OC[C@H]1O[C@@](C#N)(c2ccc3c(N)ncnn23)[C@H](O)[C@@H]1O)Oc1ccccc1", "note": "[RDV, Remdesivir]", "values": [
      {"measurement": "lung RDV triphosphate levels, inhaled vs intravenous", "setting": "[1]", "result": "similar"},
      {"measurement": "cell viability", "setting": "A549 cells", "result": "around 100%"},
      {"measurement": "highest plasma concentration of RDV observed", "setting": "[2]", "result": 4420, "unit": "ng/mL"},
      {"measurement": "highest plasma concentration of RDV observed", "setting": "[2]; converted value", "result": "~7.8", "unit": "µM"},
      {"measurement": "aqueous solubility", "setting": "[3]; background statement", "result": "< 0.03", "unit": "mg/mL"},
      {"measurement": "solubility in water", "setting": "[3]; water at 25° C.", "result": 0.028, "unit": "mg/mL"},
      {"measurement": "solubility at 72 h", "setting": "[4]; Acetone", "result": "66.4 ± 5.34", "unit": "mg/mL"},
      {"measurement": "solubility at 72 h", "setting": "[4]; Acetonitrile", "result": "5.68 ± 0.6", "unit": "mg/mL"},
      {"measurement": "solubility at 72 h", "setting": "[4]; Chloroform", "result": "3.86 ± 0.3", "unit": "mg/mL"},
      {"measurement": "solubility at 72 h", "setting": "[4]; Ethanol", "result": "34.2 ± 2.29", "unit": "mg/mL"},
      {"measurement": "solubility at 72 h", "setting": "[4]; Methanol", "result": "191 ± 13.3", "unit": "mg/mL"}
    ]},
    {"smiles": "CCC(CC)COC(=O)C(C)NP(=O)(OCC1OC(C#N)(c2ccc3c(N)ncnn23)C(O)C1O)Oc1ccccc1.O=C(O)c1ccccc1O", "note": "(stereo not drawn) [RDV−SA, cocrystal of remdesivir and salicylic acid]", "values": [
      {"measurement": "cell viability", "setting": "A549 cells", "result": "around 100%"},
      {"measurement": "medium pH at end point of dissolution (10 min)", "setting": "[5]", "result": "7.41±0.01"},
      {"measurement": "RDV dissolved at 120 min", "setting": "[6]", "result": 71.22, "unit": "%"}
    ]},
    {"smiles": "O=C(O)c1ccccc1O", "note": "[SA, Salicylic acid]", "values": [
      {"measurement": "SARS-COV-2 viral replication", "setting": "SARS-COV-2", "result": "inhibit SARS-COV-2 viral replication"},
      {"measurement": "medium pH at end point of dissolution (10 min)", "setting": "[5]", "result": "7.35±0.03"},
      {"measurement": "medium pH in 2 seconds (transient drop)", "setting": "[5]", "result": "6.89±0.02"}
    ]}
  ]
}
